Our source for the IC50 values is patent US10543212B2, “Substituted amines for treating cardiac diseases” (Cardurion Pharmaceuticals, LLC, priority 2017, dated 2020).

The structures appear in SMILES notation. pIC50: −log10 of the molar value.

What is called pIC50 is −log10 of the IC50, conventionally taken in molar units. Read a high pIC50 as a small IC50.

The assay deals with T1, Full-length, GST-tagged, human CaMKIIδ (Homo sapiens, UniProt Q13557).
T1 construct: Full-Length, Glutathione-S-Transferase(GST)-Tagged, Human CaMKIIδ was purchased from Carna Biosciences; purchased Carna Biosciences 02-111
T1 sequence (Q13557 1-478 isoform Q13557-12): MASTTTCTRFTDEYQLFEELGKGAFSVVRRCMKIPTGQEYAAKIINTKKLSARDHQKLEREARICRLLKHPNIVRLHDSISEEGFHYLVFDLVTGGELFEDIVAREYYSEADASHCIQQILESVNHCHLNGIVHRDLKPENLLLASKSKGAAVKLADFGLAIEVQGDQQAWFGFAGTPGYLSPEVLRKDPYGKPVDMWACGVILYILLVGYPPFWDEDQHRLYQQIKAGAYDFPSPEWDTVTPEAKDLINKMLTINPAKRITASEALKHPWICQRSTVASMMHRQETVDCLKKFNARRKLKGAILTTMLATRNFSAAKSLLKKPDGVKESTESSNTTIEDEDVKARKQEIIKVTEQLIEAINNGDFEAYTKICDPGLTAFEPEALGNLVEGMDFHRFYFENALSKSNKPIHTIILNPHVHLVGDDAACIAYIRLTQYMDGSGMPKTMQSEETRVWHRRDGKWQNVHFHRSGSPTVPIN
The experiment in a line: CaMKIIδ binding assay (TR-FRET with BODIPY-labeled probe ligand). Conditions: CaMKIIδ binding assay; activity class per Table 2. The essentials: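 TR-FRET probe-displacement binding: 0.5 nM GST-CaMKIIδ with 10 μg/mL calmodulin, 1 mM CaCl2, 0.21 nM Tb-anti-GST Ab and 300 nM BODIPY probe in HEPES pH 7.6 buffer. Eight-point 4-fold dilutions, 1 hr at room temperature. IC50 from logistic fit; 100% inhibition defined by 3 μM parent compound.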
A general note: In TR-FRET formats the signal depends on donor and acceptor labels being close together.
Turning to `C[C@@H](Cn1cnnn1)Oc1cc(-c2cnc(Nc3cn(C4CC5(C4)CN(C4CCC4)C5)nc3C(F)(F)F)nc2)ccc1Cl` [Example 921, (S)-5-(3-((1-(1H-tetrazol-1-yl)propan-2-yl)oxy)-4-chlorophenyl)-N-(1-(2-cyclobutyl-2-azaspiro[3.3]heptan-6-yl)-3-(trifluoromethyl)-1H-pyrazol-4-yl)pyrimidin-2-amine], the pIC50 is over 8.00. With `C[C@@H](Cn1cnnn1)Oc1cc(-c2cnc(Nc3cn(C4CC5(C4)CN(C4COC(C)(C)OC4)C5)nc3C(F)(F)F)nc2)ccc1Cl` [Example 922, (S)-5-(3-((1-(1H-tetrazol-1-yl)propan-2-yl)oxy)-4-chlorophenyl)-N-(1-(2-(2,2-dimethyl-1,3-dioxan-5-yl)-2-azaspiro[3.3]heptan-6-yl)-3-(trifluoromethyl)-1H-pyrazol-4-yl)pyrimidin-2-amine], the pIC50 was over 8.00.

As to `CC(Cn1cnnn1)Oc1cc(-c2cnc(Nc3cn(CC4(O)CCC(C)(O)CC4)nc3OCC(F)(F)F)nc2)ccc1Cl` [Example 923, trans-1-((4-((5-(3-(((S)-1-(1H-tetrazol-1-yl)propan-2-yl)oxy)-4-chlorophenyl)pyrimidin-2-yl)amino)-3-(2,2,2-trifluoroethoxy)-1H-pyrazol-1-yl)methyl)-4-methylcyclohexane-1,4-diol], the pIC50 is over 8.00. With `CC(Cn1cnnn1)Oc1cc(-c2cnc(Nc3cn(CC4(O)CCC(C)(O)CC4)nc3OCC(F)(F)F)nc2)ccc1Cl` [Example 924, cis-1-((4-((5-(3-(((S)-1-(1H-tetrazol-1-yl)propan-2-yl)oxy)-4-chlorophenyl)pyrimidin-2-yl)amino)-3-(2,2,2-trifluoroethoxy)-1H-pyrazol-1-yl)methyl)-4-methylcyclohexane-1,4-diol] the figure was over 8.00; with `C[C@@H](Cn1cnnn1)Oc1cc(-c2cnc(Nc3cn(C4CC5(CNC5)C4)nc3OCC(F)(F)F)nc2)ccc1Cl` [Example 925, (S)-5-(3-((1-(1H-tetrazol-1-yl)propan-2-yl)oxy)-4-chlorophenyl)-N-(1-(2-azaspiro[3.3]heptan-6-yl)-3-(2,2,2-trifluoroethoxy)-1H-pyrazol-4-yl)pyrimidin-2-amine], over 8.00; with `COc1ccc(Cn2cc(Nc3ncc(-c4ccc(Cl)c(O[C@@H](C)Cn5cnnn5)c4)cn3)c(OCC(F)(F)F)n2)cn1` [Example 926, (S)-5-(3-((1-(1H-tetrazol-1-yl)propan-2-yl)oxy)-4-chlorophenyl)-N-(1-((6-methoxypyridin-3-yl)methyl)-3-(2,2,2-trifluoroethoxy)-1H-pyrazol-4-yl)pyrimidin-2-amine], over 8.00. With `C[C@@H](Cn1cnnn1)Oc1cc(-c2cnc(Nc3cn(Cc4ccc(=O)[nH]c4)nc3OCC(F)(F)F)nc2)ccc1Cl` [Example 927, (S)-5-((4-((5-(3-((1-(1H-tetrazol-1-yl)propan-2-yl)oxy)-4-chlorophenyl)pyrimidin-2-yl)amino)-3-(2,2,2-trifluoroethoxy)-1H-pyrazol-1-yl)methyl)pyridin-2(1H)-one] the figure was over 8.00; with `COc1cccc(Cn2cc(Nc3ncc(-c4ccc(Cl)c(O[C@@H](C)Cn5cnnn5)c4)cn3)c(OCC(F)(F)F)n2)n1` [Example 928, (S)-5-(3-((1-(1H-tetrazol-1-yl)propan-2-yl)oxy)-4-chlorophenyl)-N-(1-((6-methoxypyridin-2-yl)methyl)-3-(2,2,2-trifluoroethoxy)-1H-pyrazol-4-yl)pyrimidin-2-amine], 7.00 to 8.00.

The compound `C[C@@H](Cn1cnnn1)Oc1cc(-c2cnc(Nc3cn(Cc4cccc(=O)[nH]4)nc3OCC(F)(F)F)nc2)ccc1Cl` [Example 929, (S)-6-((4-((5-(3-((1-(1H-tetrazol-1-yl)propan-2-yl)oxy)-4-chlorophenyl)pyrimidin-2-yl)amino)-3-(2,2,2-trifluoroethoxy)-1H-pyrazol-1-yl)methyl)pyridin-2(1H)-one] showed a pIC50 of over 8.00. With `C[C@@H](Cn1cnnn1)Oc1cc(-c2cnc(Nc3cn(C4CC5(C4)CN(C4CCOC4)C5)nc3C(F)(F)F)nc2)ccc1Cl` (stereo partly drawn) [Example 930, 5-(3-(((S)-1-(1H-tetrazol-1-yl)propan-2-yl)oxy)-4-chlorophenyl)-N-(1-(2-(tetrahydrofuran-3-yl)-2-azaspiro[3.3]heptan-6-yl)-3-(trifluoromethyl)-1H-pyrazol-4-yl)pyrimidin-2-amine] the figure was over 8.00; with `CC(C)c1nn(C2CC3(C2)CN(C(=O)OC(C)(C)C)C3)cc1Nc1ncc(-c2ccc(Cl)c(O[C@@H](C)Cn3cnnn3)c2)cn1` [Example 931, tert-butyl (S)-6-(4-((5-(3-((1-(1H-tetrazol-1-yl)propan-2-yl)oxy)-4-chlorophenyl)pyrimidin-2-yl)amino)-3-isopropyl-1H-pyrazol-1-yl)-2-azaspiro[3.3]heptane-2-carboxylate], 7.00 to 8.00; with `C[C@@H](Cn1cnnn1)Oc1cc(-c2cnc(Nc3cn(C4CC5(C4)CN(C4COC(C)(C)OC4)C5)nc3OCC(F)(F)F)nc2)ccc1Cl` [Example 932, (S)-5-(3-((1-(1H-tetrazol-1-yl)propan-2-yl)oxy)-4-chlorophenyl)-N-(1-(2-(2,2-dimethyl-1,3-dioxan-5-yl)-2-azaspiro[3.3]heptan-6-yl)-3-(2,2,2-trifluoroethoxy)-1H-pyrazol-4-yl)pyrimidin-2-amine], over 8.00. With `C[C@@H](Cn1cnnn1)Oc1cc(-c2cnc(Nc3cn(C4CC5(C4)CN(C4CCC4)C5)nc3OCC(F)(F)F)nc2)ccc1Cl` [Example 933, (S)-5-(3-((1-(1H-tetrazol-1-yl)propan-2-yl)oxy)-4-chlorophenyl)-N-(1-(2-cyclobutyl-2-azaspiro[3.3]heptan-6-yl)-3-(2,2,2-trifluoroethoxy)-1H-pyrazol-4-yl)pyrimidin-2-amine] the figure was over 8.00. In turn, `CC(C)c1nn(C2CC3(CNC3)C2)cc1Nc1ncc(-c2ccc(Cl)c(O[C@@H](C)Cn3cnnn3)c2)cn1` [Example 934, (S)-5-(3-((1-(1H-tetrazol-1-yl)propan-2-yl)oxy)-4-chlorophenyl)-N-(3-isopropyl-1-(2-azaspiro[3.3]heptan-6-yl)-1H-pyrazol-4-yl)pyrimidin-2-amine] had a pIC50 of over 8.00. With `CC(C)c1nn(C2CC3(C2)CN(C2COC2)C3)cc1Nc1ncc(-c2ccc(Cl)c(O[C@@H](C)Cn3cnnn3)c2)cn1` [Example 935, (S)-5-(3-((1-(1H-tetrazol-1-yl)propan-2-yl)oxy)-4-chlorophenyl)-N-(3-isopropyl-1-(2-(oxetan-3-yl)-2-azaspiro[3.3]heptan-6-yl)-1H-pyrazol-4-yl)pyrimidin-2-amine] the figure was over 8.00; with `CC(C)c1nn(C2CC3(C2)CN(C2CCOCC2)C3)cc1Nc1ncc(-c2ccc(Cl)c(O[C@@H](C)Cn3cnnn3)c2)cn1` [Example 936, (S)-5-(3-((1-(1H-tetrazol-1-yl)propan-2-yl)oxy)-4-chlorophenyl)-N-(3-isopropyl-1-(2-(tetrahydro-2H-pyran-4-yl)-2-azaspiro[3.3]heptan-6-yl)-1H-pyrazol-4-yl)pyrimidin-2-amine], over 8.00. With `C[C@@H](Cn1cnnn1)Oc1cc(-c2cnc(Nc3cn(C4CC5(C4)CN(C4(C)CCOCC4)C5)nc3OCC(F)(F)F)nc2)ccc1Cl` [Example 937, (S)-5-(3-((1-(1H-tetrazol-1-yl)propan-2-yl)oxy)-4-chlorophenyl)-N-(1-(2-(4-methyltetrahydro-2H-pyran-4-yl)-2-azaspiro[3.3]heptan-6-yl)-3-(2,2,2-trifluoroethoxy)-1H-pyrazol-4-yl)pyrimidin-2-amine] the figure was over 8.00; with `C[C@@H](Cn1cnnn1)Oc1cc(-c2cnc(Nc3cn(C4CC5(C4)CN(C4CCOCC4)C5)nc3OCC(F)(F)F)nc2)ccc1C#N` [Example 938, (S)-2-((1-(1H-tetrazol-1-yl)propan-2-yl)oxy)-4-(2-((1-(2-(tetrahydro-2H-pyran-4-yl)-2-azaspiro[3.3]heptan-6-yl)-3-(2,2,2-trifluoroethoxy)-1H-pyrazol-4-yl)amino)pyrimidin-5-yl)benzonitrile], over 8.00.

In the case of `C[C@@H](Cn1cnnn1)Oc1cc(-c2cnc(Nc3cn(C4CC5(C4)CN(C4CCOCC4)C5)nc3OCC(F)(F)F)nc2)ccc1C(F)F` [Example 939, (S)-5-(3-((1-(1H-tetrazol-1-yl)propan-2-yl)oxy)-4-(difluoromethyl)phenyl)-N-(1-(2-(tetrahydro-2H-pyran-4-yl)-2-azaspiro[3.3]heptan-6-yl)-3-(2,2,2-trifluoroethoxy)-1H-pyrazol-4-yl)pyrimidin-2-amine], the pIC50 was over 8.00. In the case of `C[C@@H](Cn1cnnn1)Oc1cc(-c2cnc(Nc3cn([C@H]4C[C@H](NC(=O)OC(C)(C)C)C4)nc3OCC(F)(F)F)nc2)ccc1Cl` [Example 940, tert-butyl (trans-3-(4-((5-(3-(((S)-1-(1H-tetrazol-1-yl)propan-2-yl)oxy)-4-chlorophenyl)pyrimidin-2-yl)amino)-3-(2,2,2-trifluoroethoxy)-1H-pyrazol-1-yl)cyclobutyl)carbamate], the pIC50 is 7.00 to 8.00.

`C[C@@H](Cn1cnnn1)Oc1cc(-c2cnc(Nc3cn([C@H]4C[C@H](N)C4)nc3OCC(F)(F)F)nc2)ccc1Cl` [Example 941, 5-(3-(((S)-1-(1H-tetrazol-1-yl)propan-2-yl)oxy)-4-chlorophenyl)-N-(1-(trans-3-aminocyclobutyl)-3-(2,2,2-trifluoroethoxy)-1H-pyrazol-4-yl)pyrimidin-2-amine]: the pIC50 is over 8.00.

`C[C@@H](Cn1cnnn1)Oc1cc(-c2cnc(Nc3cn([C@H]4C[C@H](NC5CCOCC5)C4)nc3OCC(F)(F)F)nc2)ccc1Cl` [Example 942, 5-(3-(((S)-1-(1H-tetrazol-1-yl)propan-2-yl)oxy)-4-chlorophenyl)-N-(1-(trans-3-((tetrahydro-2H-pyran-4-yl)amino)cyclobutyl)-3-(2,2,2-trifluoroethoxy)-1H-pyrazol-4-yl)pyrimidin-2-amine] had a pIC50 of over 8.00.
